Experimental data published in PubChem BioAssay AID1963977 (Molecular Pharmacology Branch, DTP, NCI, 2024).

Test system: 624824-186-R-J3-PDC multicell spheroids, viability
Assay: Anticancer human tumor 624824-186-R-J3-PDC patient-derived colon adenocarcinoma cell line growth inhibition [PI3K]
Settings: for IC50: curve of first compound; for viability, T/C: stronger effect = lower value; active = viability on the fitted dose curve at most 10% of control; inactive = the rest
Excerpt: Combinatorial screen of targeted agents with the PI3K inhibitors inavolisib, alpelisib, duvelisib, and copanlisib in multi-cell type tumor spheroids
A high-throughput screen of multi-cell type tumor spheroids was designed to identify active combinations of targeted small molecules and PI3K pathway inhibitors. Complex spheroids include a stromal component modeled by human endothelial cells (HUVEC) and fibroblasts modeled by human mesenchymal stem cells (MSCs). The concentration ranges selected for each drug and investigational agent were based upon clinically achievable concentrations if the clinical Cmax of the agent was known.
Compounds. The drugs and investigational agents: inavolisib (NSC800729), alpelisib (NSC765974), duvelisib (NSC772469), copanlisib (NSC816437), ipatasertib (NSC767898), afuresertib (NSC778305), talazoparib (NSC767125), sapanisertib (NSC764658), selumetinib (NSC741078), tovorafenib (DAY101, NSC766906), vemurafenib (NSC761431), ravoxertinib (NSC781343), sotorasib (NSC818433), MRTX1133 (NSC 836407), abemaciclib (NSC 768073), palbociclib (NSC758247), venetoclax (NSC 766270), SY5609 (NSC837396), enzalutamide (NSC755605), and darolutamide (NSC825331), were obtained from the National Cancer Institute (NCI) Developmental Therapeutics Program Chemical Repository. The FDA-approved anticancer drug set is available from the NCI Developmental Therapeutics Program. […] The stock solutions were prepared in dimethyl sulfoxide (DMSO, Sigma-Aldrich, St. Louis, MO, cat. D2650) at 800-fold the tested concentration and stored at -70 degrees C prior to their use. All drugs and investigational agents were tested over a range starting from a high concentration at or near the clinical Cmax and decreasing in half-log increments. If the clinical Cmax for an agent had not been determined, the highest concentration tested was 10 microM.
Cell Culture. All cells were maintained in an incubator at 37 degrees C and 5% CO2 with 95% humidity. The PDC lines were cultured according to standard operating procedures established by the NCI PDMR (https://pdmr.cancer.gov/sops/default.htm). All PDCs were thawed and cultured in Matrigel-coated flasks prepared with a working solution of 1X Ham's F-12 nutrient mix, without supplementation (Invitrogen, Waltham, MA, cat. 11765054), 100 U/mL penicillin-streptomycin (Invitrogen, cat. 15140122), and 2.5% Matrigel (Corning Inc., Corning, NY, cat. 354248) for the first three passages. The 354836-022-R-J1-PDC, 475296-252-R-J1-PDC, and 997726-040-R-J2-PDC lines were cultured in 6A media, which includes advanced DMEM/F-12 (Thermo Fisher Scientific, cat. 12634028), 10 mM HEPES (Thermo Fisher Scientific, cat. 15630080), 1X GlutaMAX supplement (Thermo Fisher Scientific, cat. 35050061), 0.1 mg/mL primocin (InvivoGen, San Diego, CA, cat. ant-pm-2), 10% defined fetal bovine serum, heat inactivated (HyClone Laboratories Inc., Logan, UT, cat. SH30070.03HI), 50% L-WRN conditioned media (ATCC, cat. CRL-3276), 1.25 mM N-Acetyl-L-cysteine (Sigma-Aldrich, cat. A9165), 10 mM nicotinamide (Sigma-Aldrich, cat. N0636), 1X B-27 supplement (Thermo Fisher Scientific, cat. 17504044), 1X N-2 supplement (Thermo Fisher Scientific, cat. 17502048), and 10 microM Y-27632 dihydrochloride (Tocris Bioscience, Bristol, United Kingdom, cat. 1254). The 624824-186-R-J2-PDC line was cultured in 6C/Colon 1B media, which includes all 6A media components plus 50 ng/mL human EGF recombinant protein (Thermo Fisher Scientific, cat. PHG0311). […]
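Also: spheroids exposed to agents for seven days before luminescence read.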
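For viability, T/C in this document: luminescent signal used as a stand-in for spheroid viability; percent viability relative to DMSO vehicle control wells taken as 100%.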

CCN1CCN(Cc2ccc(Nc3ncc(F)c(-c4cc(F)c5nc(C)n(C(C)C)c5c4)n3)nc2)CC1 + CC(Nc1ccc2c(c1)OCCn1cc(N3C(=O)OCC3C(F)F)nc1-2)C(N)=O
inactive: viability, T/C (second compound 0.00316 µM, first compound 0.00316 µM) 99.2% | viability, T/C (second compound 0.00316 µM, first compound 0.01 µM) 96.2% | viability, T/C (second compound 0.00316 µM, first compound 0.0316 µM) 106% | viability, T/C (second compound 0.00316 µM, first compound 0.1 µM) 101% | viability, T/C (second compound 0.00316 µM, first compound 0.316 µM) 93.2% | viability, T/C (second compound 0.00316 µM, first compound 1 µM) 97.1% | viability, T/C (second compound 0.01 µM, first compound 0.00316 µM) 101% | viability, T/C (second compound 0.01 µM, first compound 0.01 µM) 89% | viability, T/C (second compound 0.01 µM, first compound 0.0316 µM) 114% | viability, T/C (second compound 0.01 µM, first compound 0.1 µM) 102% | viability, T/C (second compound 0.01 µM, first compound 0.316 µM) 104% | viability, T/C (second compound 0.01 µM, first compound 1 µM) 90% | viability, T/C (second compound 0.0316 µM, first compound 0.00316 µM) 101% | viability, T/C (second compound 0.0316 µM, first compound 0.01 µM) 97.8% | viability, T/C (second compound 0.0316 µM, first compound 0.0316 µM) 102% | viability, T/C (second compound 0.0316 µM, first compound 0.1 µM) 105% | viability, T/C (second compound 0.0316 µM, first compound 0.316 µM) 89.6% | viability, T/C (second compound 0.0316 µM, first compound 1 µM) 76.3% | viability, T/C (second compound 0.1 µM, first compound 0.00316 µM) 94.6% | viability, T/C (second compound 0.1 µM, first compound 0.01 µM) 96% | viability, T/C (second compound 0.1 µM, first compound 0.0316 µM) 103% | viability, T/C (second compound 0.1 µM, first compound 0.1 µM) 105% | viability, T/C (second compound 0.1 µM, first compound 0.316 µM) 75.2% | viability, T/C (second compound 0.1 µM, first compound 1 µM) 58.3% | viability, T/C (second compound 0.316 µM, first compound 0.00316 µM) 94.5% | viability, T/C (second compound 0.316 µM, first compound 0.01 µM) 92.9% | viability, T/C (second compound 0.316 µM, first compound 0.0316 µM) 105% | viability, T/C (second compound 0.316 µM, first compound 0.1 µM) 77.2% | viability, T/C (second compound 0.316 µM, first compound 0.316 µM) 54.6% | viability, T/C (second compound 0.316 µM, first compound 1 µM) 49% | viability, T/C (second compound 1 µM, first compound 0.00316 µM) 95.6% | viability, T/C (second compound 1 µM, first compound 0.01 µM) 87.6% | viability, T/C (second compound 1 µM, first compound 0.0316 µM) 81.1% | viability, T/C (second compound 1 µM, first compound 0.1 µM) 56.5% | viability, T/C (second compound 1 µM, first compound 0.316 µM) 45.4% | viability, T/C (second compound 1 µM, first compound 1 µM) 52.5%
287 nM: IC50 (second compound 1 µM)
> 1000 nM: IC50 (second compound 0.00316 µM) | IC50 (second compound 0.01 µM) | IC50 (second compound 0.0316 µM) | IC50 (second compound 0.1 µM) | IC50 (second compound 0.316 µM)
